Test results taken from ChEMBL document CHEMBL4765411, “Discovery of 2-(2-aminobenzo[d]thiazol-6-yl) benzo[d]oxazol-5-amine derivatives that regulated HPV relevant cellular pathway and prevented cervical cancer from abnormal proliferation” (Eur J Med Chem, 2020).

What was measured:
HeLa [1] = experiment: Antiproliferative activity against human HeLa cells assessed as growth inhibition at 20 uM viability after 72 hrs by SRB assay relative to control; type: functional; settings: read-out: GI
HeLa [2] = experiment: Antiproliferative activity against human HeLa cells assessed as reduction in cell viability after 72 hrs by SRB assay; type: functional, cell-based
HeLa [3] = experiment: Antiproliferative activity against human HeLa cells assessed as growth inhibition at 1 uM viability after 72 hrs by SRB assay relative to control; type: functional; settings: read-out: GI

IC50 (HeLa [2]) [µM] | Structure (SMILES) | inhibition of growth at 20 µM (HeLa [1]) [%] | inhibition of growth at 1 µM (HeLa [3]) [%]
– | Nc1cccc(-c2nc3ccccc3[nH]2)c1 | 0 | –
– | Oc1ccccc1-c1nc2ccccc2s1 | 8.1 | –
– | Nc1nc2c(Br)cccc2s1 | 1.7 | –
7.08 | Nc1ccc2oc(-c3ccc4ncsc4c3)nc2c1 | 58 | 20.3
– | Nc1ccc2oc(-c3cccc4c(Br)cccc34)nc2c1 | 13.8 | –
– | FC(F)(F)c1ccc(-c2nc3ccccc3s2)nn1 | 9.7 | –
– | Nc1ccc2oc(-c3ccccc3)nc2c1 | -2.3 | –
– | Nc1ccc2oc(-c3cc(I)ccc3Cl)nc2c1 | 26.5 | –
– | c1ccc(-c2nc3ccccc3[nH]2)nc1 | 2.5 | –
6 | c1ccc2oc(-c3ccc4ncsc4c3)nc2c1 | 49.2 | 17.6
– | Nc1nc2ccccc2[nH]1 | 1.1 | –
– | Nc1ccc(-c2nc3ccccc3o2)cc1 | 19.3 | –
– | Nc1ccc(Br)cc1-c1nc2ccccc2s1 | 0.8 | –
– | O=C(Nc1nc2ccccc2s1)c1c(Cl)cccc1Cl | 3.5 | –
– | O=C(Nc1nc2ccccc2s1)c1cccnc1Cl | 5.5 | –
– | Nc1ccc2oc(-c3ccccc3F)nc2c1 | 42.4 | –

IC50 (HeLa [2]) [µM] | Structure (SMILES) | inhibition of growth at 20 µM (HeLa [1]) [%] | inhibition of growth at 1 µM (HeLa [3]) [%]
– | C[S+]([O-])c1ccc2nc(N)sc2c1 (stereo not given) | 9.1 | –
– | O=S(=O)(O)c1nc2ccccc2s1 | 25 | –
– | Oc1c(Br)cc(Br)cc1-c1nc2ccccc2s1 | 4 | –
– | COc1cccc2sc(N)nc12 | 0.6 | –
– | c1cncc(-c2nc3ccccc3s2)c1 | 4.4 | –
– | Nc1ccc(-c2nc3ccccc3[nH]2)c(N)c1 | 0.2 | –
– | COc1ccc2sc(N)nc2c1 | 12.2 | –
– | Nc1nc2ccc(-c3nc4ccccc4s3)cc2s1 | 47.8 | –
– | Nc1ccc2nc(N)sc2c1 | 6.9 | –
– | Cc1nc(-c2nc3ccccc3s2)n[nH]1 | 6.6 | –
– | Nc1ccc(O)c(-n2nc3ccc(N)cc3n2)c1 | 7.1 | –
– | Nc1nc2ccc([N+](=O)[O-])cc2s1 | 6 | –
– | Nc1ccc(-c2nc3ccccc3[nH]2)cc1 | 1.9 | –
– | CCOc1ccc(-c2nc3cc(N)ccc3o2)cc1 | 5.8 | –
– | O=[N+]([O-])c1ccc(-c2nc3cc([N+](=O)[O-])ccc3o2)cc1 | 3.8 | –
